Measurements reported in patent publication US5037826A, “1-substituted naphthyridine and pyridopyrazine derivatives” (Schering Corporation, priority 1986, dated 1991).

How the values were obtained:
[1] = Carboni et al., Farmaco, Ed. Sci., 1973; cited from earlier work
[2] = system: antigen induced broncho-constriction in sensitized guinea pigs; assay: Inhibition of anaphylactic bronchospasm in sensitized guinea pigs (ovalbumin challenge); format: in vivo, guinea pig; conditions: 2 hours before ovalbumin challenge, vs vehicle-treated control
Protocol: The compounds of this invention may be employed as anti-allergy agents in the treatment of, for example, asthma, allergic or seasonal rhinitis, and/or chronic bronchitis. The anti-allergy method of this invention is identified by tests which measure a compound's inhibition of anaphylactic bronchosoasm in sensitized guinea pigs having antigen induced broncho-constriction.
In one such test procedure, male Hartley guinea pigs (250-300 g) are sensitized with 5 mg ovalbumin injected i.p. and 5 mg injected s.c. in 1 ml saline on day 1 and 5 mg ovalbumin injected i.p. on day 4. The sensitized animals are used 3-4 weeks later at which time they weigh 450-500 g.
The sensitized guinea pigs are fasted overnight and the following morning are anesthetized with 0.9 ml/kg i.p. of dialurethane (0.1 g/ml diallybarbituric acid, 0.4 g/ml ethylurea and 0.4 g/ml urethane). The trachea are cannulated and the animals are ventilated by a Harvard® rodent respirator at 50 strokes/minute with a stroke volume of 5 ml. A side arm to the tracheal cannula is connected to a pressure transducer (Harvard) to obtain a continuous measure of intratracheal pressure which is recorded on a polygraph (Harvard). The jugular vein is cannulated for the i.v. administration of substances. The animals are challenged with antigen (0.5% ovalbumin) as an aerosol generated from a DeVilbiss® Model 65 ultrasonic nebulizer and delivered through the tracheal cannula for 30 seconds. Bronchoconstriction is measured as the peak increase in intratracheal pressure occurring within 5 minutes after antigen challenge.
The sensitized guinea pigs are injected i.v. with 1 mg/kg propranolol, 5 mg/kg indomethacin and 2 mg/kg mepyramine given together in a volume of 1 ml/kg. Fifteen minutes later the animals are challenged with nebulized ovalbumin. Test compounds are administered orally 2 hours before challenge with ovalbumin. Suppression of anaphylactic bronchospasm is expressed as a percent inhibition of the peak increase in intratracheal pressure by comparison to a vehicle-treated control group.

[3] = system: reverse passive Arthus reaction in the pleural cavity of rats; assay: Reverse passive Arthus reaction in the pleural cavity of rats (Myers et al.); format: in vivo; conditions: Rattus norvegicus, po; pleural fluid
Protocol: Another procedure for testing for acute anti-inflammatory activity measures the reverse passive Arthus reaction in the pleural cavity of rats as described in Myers et al., Inflammation, Vol. 9, No. 1, 1985, pp. 91-98. Compound A provided an ED50 value (fluid) of about 5.0 mg/kg p.o. in such procedure.

[4] = system: GVHR splenomegaly in C57 B1/6XA/J(F6AF1) male mice; assay: Graft vs. host reaction (GVHR), spleen weight; format: in vivo, mouse; conditions: 100 mg/kg orally for 10 days; compared to untreated animals
Protocol: To induce a GVHR, C57 B1/6XA/J(F6AF1) male mice were injected intravenously with parental (C57B/6J) spleen and lymph node cells. 3-(2-Hydroxyethyl)-1-phenyl-1,8-naphthyridin-2(1H)-one (Compound A) was then administered orally for 10 days beginning on the day prior to the cell transfer. On the day following the last treatment, the animals were sacrificed, and their spleens were excised and weighed. The enlargement of the spleen of the host is a result of a GVHR. To some extent it is the host's own cells which infiltrate and enlarge the spleen although they do this because of the presence of graft cells reacting against the host. The amount of spleen enlargement, splenomegaly, is taken as a measure of the severity of the GVHR.
In carrying out the GVHR the animal in the experimental group is injected with parental cells, cells of the same species but of different genotype, which cause a weight increase of the spleen. […] The effectiveness of the compounds administered to the mice in the experimental group is measured by comparing the spleen weight of the untreated and treated GVH animal with that of the syngeneic control. Compound A in this test procedure reduced spleen weight by 92% at a dose of 100 mg/kg as compared to the untreated animals.

[5] = system: spleen weight of BDF1 mice; assay: Splenic atrophy, decrease in spleen weight; format: in vivo; conditions: Mus musculus, oral, seven consecutive days
Protocol: The immunosuppressive activity of the compounds may also be shown by a decrease in spleen weight after dosing BDF1 mice orally with the drug for seven (7) consecutive days. The mice are sacrificed on the eighth day. The percent decrease in spleen weight is measured for each dosage level. In this procedure, Compound A provided an ED30 of less than 25 mg/kg.

[6] = system: Reversed Passive Arthus Response in the right rear paw of rats; assay: Reversed Passive Arthus Response (RPAR), rat paw volume; format: in vivo; conditions: 25 mg/kg p.o. once daily for 3 days
Protocol: Male Lewis inbred albino rats weighing 180-200 grams obtained from Charles River Breeding Laboratories are used in these experiments. The rats are housed 3 animals/cage and food and water are allowed ad libitum. The animals are numbered 1-3 in each cage and color marked for identification purposes.
All reagents and drugs are prepared just prior to the study. Crystallized and lyophilized bovine serum albumin (BSA), available from Sigma Chemical Company, is solubilized without shaking in cold, sterile, pyrogen-free saline (10 mg/ml). Lyophilized anti-bovine serum albumin (IgG fraction), obtained from Cappel Laboratories, is suspended in sterile distilled water and diluted with cold, pyrogen-free saline (PFS) just prior to use. […]
Groups of animals (6/group) are dosed with drug in MC by gavace once daily for 3 days. […] The volume of mercury displaced is converted to weight and recorded. This value is considered to be the control reading for the animal. Paw volumes are subsequently recorded with a plethysmograph during the development of the inflammation at 2 and 4 hours post-challenge.
Results are expressed by the chance in paw volume (Δ paw volume) from the control reading for each animal to that recorded 2 and 4 hours post-challenge. […] Differences from control in drug-treated groups are expressed as percent change from control are determined.

O=c1ccc2ccc(OCc3ccccc3)nc2n1Cc1ccccc1 [1-benzyl-7-benzyloxy-[1,8]naphthyridin-2-one]
antibacterial activity [1]: inactive

O=c1c(CCO)cc2cccnc2n1-c1cccc(Cl)c1 [B]
% Inhibition of anaphylactic bronchospasm (peak increase in intratracheal pressure) ([2]; dose p.o. 2 mg/kg): 79%

O=c1c(CCO)cc2cccnc2n1-c1ccccc1 [Compound A, 3-(2-Hydroxyethyl)-1-phenyl-1,8-naphthyridin-2(1H)-one]
% Inhibition of anaphylactic bronchospasm (peak increase in intratracheal pressure) ([2]; dose p.o. 5 mg/kg): 78%
ED50 [3]: ~5 mg/kg
reduction of spleen weight [4]: 92%
ED30 [5]: < 25 mg/kg

COCCOc1c(C)c2cccnc2n(-c2ccccc2)c1=O [Compound C]
% Inhibition of anaphylactic bronchospasm (peak increase in intratracheal pressure) ([2]; dose p.o. 5 mg/kg): 25%
% inhibition (Δ paw volume) after 2 hours ([6]; 2 hours post-challenge): 74%
% inhibition (Δ paw volume) after 4 hours ([6]; 4 hours post-challenge): 36%
